Assay results taken from ChEMBL document CHEMBL1687752, “Impact of antifungal prophylaxis on colonization and azole susceptibility of Candida species” (2009).
Values after ≈ are worked out from the molar mass of the structure shown.

Legend:
Type in all cases: functional
Nakaseomyces glabratus [1] = test: Antifungal activity against Candida glabrata isolated from HSCT recipients with acute or chronic GVHD receiving posaconazole by broth microdilution method
Candida albicans [2] = test: Antifungal activity against Candida albicans isolated from HSCT recipients with acute or chronic GVHD prior to initiation of posaconazole therapy by broth microdilution method
Nakaseomyces glabratus [3] = test: Antifungal activity against Candida glabrata isolated from HSCT recipients with acute or chronic GVHD receiving fluconazole by broth microdilution method
Pichia kudriavzevii [4] = test: Antifungal activity against 6 days cultured Candida krusei isolated from neutropenic subject with AML or MDS stool receiving antifungal therapy for 19 days after 6 days of prophylaxis by broth microdilution method
Nakaseomyces glabratus [5] = test: Antifungal activity against Candida glabrata isolated from neutropenic subjects with AML or MDS receiving posaconazole by broth microdilution method
Candida albicans [6] = test: Antifungal activity against Candida albicans isolated from neutropenic subjects with AML or MDS prior to initiation of posaconazole therapy by broth microdilution method
Candida albicans [7] = test: Antifungal activity against Candida albicans isolated from HSCT recipient 928 with acute or chronic GVHD mouth after 112 days prophylaxis by broth microdilution method
Nakaseomyces glabratus [8] = test: Antifungal activity against Candida glabrata isolated from neutropenic subjects with AML or MDS receiving posaconazole assessed as maximum MIC by broth microdilution method
Nakaseomyces glabratus [9] = test: Antifungal activity against Candida glabrata isolated from neutropenic subjects with AML or MDS prior to initiation of posaconazole therapy assessed as maximum MIC by broth microdilution method
Candida tropicalis [10] = test: Antifungal activity against -3 days cultured Candida tropicalis isolated from neutropenic subject with AML or MDS stool receiving antifungal therapy for 45 days after 24 days of prophylaxis by broth microdilution method
Candida albicans [11] = test: Antifungal activity against Candida albicans isolated from HSCT recipient 042 with acute or chronic GVHD mouth receiving antifungal drug after 112 days prophylaxis by broth microdilution method
Nakaseomyces glabratus [12] = test: Antifungal activity against 29 days cultured Candida glabrata isolated from neutropenic subject with AML or MDS pharynx after 48 days of prophylaxis by broth microdilution method
Candida albicans [13] = test: Antifungal activity against Candida albicans isolated from HSCT recipients with acute or chronic GVHD receiving posaconazole assessed as maximum MIC by broth microdilution method
Nakaseomyces glabratus [14] = test: Antifungal activity against -2 days cultured Candida glabrata isolated from HSCT recipient with acute or chronic GVHD mouth receiving antifungal therapy for 168 days after 113 days of prophylaxis by broth microdilution method
Candida albicans [15] = test: Antifungal activity against Candida albicans isolated from neutropenic subjects with AML or MDS receiving fluconazole assessed as maximum MIC by broth microdilution method
Nakaseomyces glabratus [16] = test: Antifungal activity against Candida glabrata isolated from HSCT recipient 975 with acute or chronic GVHD mouth receiving antifungal drug after 112 days prophylaxis by broth microdilution method
Nakaseomyces glabratus [17] = test: Antifungal activity against 25 days cultured Candida glabrata isolated from invasive fungal infected subject blood receiving antifungal therapy for 25 days after 3 days of prophylaxis by broth microdilution method
Pichia kudriavzevii [18] = test: Antifungal activity against 16 days cultured Candida krusei isolated from neutropenic subject with AML or MDS stool receiving antifungal therapy for 19 days after 6 days of prophylaxis by broth microdilution method
Nakaseomyces glabratus [19] = test: Antifungal activity against Candida glabrata isolated from HSCT recipient 002 with acute or chronic GVHD mouth after 116 days prophylaxis by broth microdilution method
Nakaseomyces glabratus [20] = test: Antifungal activity against Candida glabrata isolated from neutropenic subject 1331 with AML or MDS pharynx after 21 days prophylaxis by broth microdilution method; settings: 504 h
Pichia kudriavzevii [21] = test: Antifungal activity against Candida krusei isolated from HSCT recipients with acute or chronic GVHD prior to initiation of fluconazole therapy assessed as maximum MIC by broth microdilution method
Nakaseomyces glabratus [22] = test: Antifungal activity against 43 days cultured Candida glabrata isolated from HSCT recipient with acute or chronic GVHD mouth receiving antifungal therapy for 172 days after 114 days of prophylaxis by broth microdilution method
Pichia kudriavzevii [23] = test: Antifungal activity against Candida krusei isolated from neutropenic subjects with AML or MDS prior to initiation of posaconazole therapy assessed as maximum MIC by broth microdilution method
Nakaseomyces glabratus [24] = test: Antifungal activity against -2 days cultured Candida glabrata isolated from HSCT recipient with acute or chronic GVHD mouth receiving antifungal therapy for 172 days after 114 days of prophylaxis by broth microdilution method
Nakaseomyces glabratus [25] = test: Antifungal activity against 1 day cultured Candida glabrata isolated from HSCT recipient with acute or chronic GVHD mouth after 17 days of prophylaxis by broth microdilution method
Pichia kudriavzevii [26] = test: Antifungal activity against 1 day cultured Candida krusei isolated from neutropenic subject with AML or MDS pharynx receiving antifungal therapy for 19 days after 6 days of prophylaxis by broth microdilution method
Candida albicans [27] = test: Antifungal activity against Candida albicans isolated from HSCT recipient 301 with acute or chronic GVHD mouth after 114 days prophylaxis by broth microdilution method
Candida albicans [28] = test: Antifungal activity against Candida albicans isolated from HSCT recipients with acute or chronic GVHD prior to initiation of fluconazole therapy by broth microdilution method
Nakaseomyces glabratus [29] = test: Antifungal activity against 85 days cultured Candida glabrata isolated from HSCT recipient with acute or chronic GVHD mouth receiving antifungal therapy for 143 days after 116 days of prophylaxis by broth microdilution method
Nakaseomyces glabratus [30] = test: Antifungal activity against 60 days cultured Candida glabrata isolated from HSCT recipient with acute or chronic GVHD mouth receiving antifungal therapy for 75 days after 33 days of prophylaxis by broth microdilution method
Nakaseomyces glabratus [31] = test: Antifungal activity against 42 days cultured Candida glabrata isolated from neutropenic subject with AML or MDS stool after 48 days of prophylaxis by broth microdilution method
Pichia kudriavzevii [32] = test: Antifungal activity against 14 days cultured Candida krusei isolated from neutropenic subject with AML or MDS stool after 12 days of prophylaxis by broth microdilution method
Candida tropicalis [33] = test: Antifungal activity against 9 days cultured Candida tropicalis isolated from neutropenic subject with AML or MDS stool receiving antifungal therapy for 45 days after 24 days of prophylaxis by broth microdilution method
Nakaseomyces glabratus [34] = test: Antifungal activity against 56 days cultured Candida glabrata isolated from HSCT recipient with acute or chronic GVHD mouth receiving antifungal therapy for 172 days after 114 days of prophylaxis by broth microdilution method
Candida albicans [35] = test: Antifungal activity against Candida albicans isolated from HSCT recipients with acute or chronic GVHD prior to initiation of posaconazole therapy assessed as maximum MIC by broth microdilution method
Candida albicans [36] = test: Antifungal activity against Candida albicans isolated from HSCT recipient 042 with acute or chronic GVHD mouth after 112 days prophylaxis by broth microdilution method
Nakaseomyces glabratus [37] = test: Antifungal activity against Candida glabrata isolated from neutropenic subject 1497 with AML or MDS pharynx after 61 days prophylaxis by broth microdilution method
Nakaseomyces glabratus [38] = test: Antifungal activity against 1 day cultured Candida glabrata isolated from neutropenic subject with AML or MDS stool receiving antifungal therapy for 25 days after 3 days of prophylaxis by broth microdilution method
Nakaseomyces glabratus [39] = test: Antifungal activity against Candida glabrata isolated from neutropenic subject 1497 with AML or MDS pharynx receiving antifungal drug after 61 days prophylaxis by broth microdilution method

SMILES: CCC(C)n1ncn(-c2ccc(N3CCN(c4ccc(OCC5COC(Cn6cncn6)(c6ccc(Cl)cc6Cl)O5)cc4)CC3)cc2)c1=O (stereo not given) [ITRACONAZOLE]
- MIC50 (Nakaseomyces glabratus [1]): 2 µg/mL (≈ 2.83 µM)
- MIC90 (Nakaseomyces glabratus [1]): 8 µg/mL (≈ 11.3 µM)
- MIC50 (Candida albicans [2]): 0.03 µg/mL (≈ 0.0425 µM)
- MIC90 (Candida albicans [2]): 0.06 µg/mL (≈ 0.085 µM)
- MIC50 (Nakaseomyces glabratus [3]): 1 µg/mL (≈ 1.42 µM)
- MIC90 (Nakaseomyces glabratus [3]): 16 µg/mL (≈ 22.7 µM)
- MIC (Pichia kudriavzevii [4]): 0.5 µg/mL (≈ 0.709 µM)
- MIC50 (Nakaseomyces glabratus [5]): 0.5 µg/mL (≈ 0.709 µM)
- MIC90 (Nakaseomyces glabratus [5]): 8 µg/mL (≈ 11.3 µM)
- MIC50 (Candida albicans [6]): 0.015 µg/mL (≈ 0.0213 µM)
- MIC90 (Candida albicans [6]): 0.03 µg/mL (≈ 0.0425 µM)
- MIC (Candida albicans [7]): < 0.015 µg/mL
- MIC (Nakaseomyces glabratus [8]): 8 µg/mL
- MIC (Nakaseomyces glabratus [9]): 8 µg/mL
- MIC (Candida tropicalis [10]): 0.03 µg/mL (≈ 0.0425 µM)
- MIC (Candida albicans [11]): 0.06 µg/mL (≈ 0.085 µM)
- MIC (Nakaseomyces glabratus [12]): 8 µg/mL (≈ 11.3 µM)
- MIC (Candida albicans [13]): 0.25 µg/mL
- MIC (Nakaseomyces glabratus [14]): 1 µg/mL (≈ 1.42 µM)
- MIC (Candida albicans [15]): 8 µg/mL
- MIC (Nakaseomyces glabratus [16]): 8 µg/mL (≈ 11.3 µM)
- MIC (Nakaseomyces glabratus [17]): 2 µg/mL (≈ 2.83 µM)
- MIC (Pichia kudriavzevii [18]): 0.25 µg/mL (≈ 0.354 µM)
- MIC (Nakaseomyces glabratus [19]): 1 µg/mL (≈ 1.42 µM)
- MIC (Nakaseomyces glabratus [20]): 1 µg/mL (≈ 1.42 µM)
- MIC (Pichia kudriavzevii [21]): 1 µg/mL
- MIC (Nakaseomyces glabratus [22]): 2 µg/mL (≈ 2.83 µM)
- MIC (Pichia kudriavzevii [23]): 0.5 µg/mL
- MIC (Nakaseomyces glabratus [24]): 1 µg/mL (≈ 1.42 µM)
- MIC (Nakaseomyces glabratus [25]): > 8 µg/mL
- MIC (Pichia kudriavzevii [26]): 0.125 µg/mL (≈ 0.177 µM)
- MIC (Candida albicans [27]): < 0.015 µg/mL
- MIC50 (Candida albicans [28]): 0.03 µg/mL (≈ 0.0425 µM)
- MIC90 (Candida albicans [28]): 0.06 µg/mL (≈ 0.085 µM)
- MIC (Nakaseomyces glabratus [29]): 8 µg/mL (≈ 11.3 µM)
- MIC (Nakaseomyces glabratus [30]): 4 µg/mL (≈ 5.67 µM)
- MIC (Nakaseomyces glabratus [31]): 1 µg/mL (≈ 1.42 µM)
- MIC (Pichia kudriavzevii [32]): 0.25 µg/mL (≈ 0.354 µM)
- MIC (Candida tropicalis [33]): 0.03 µg/mL (≈ 0.0425 µM)
- MIC (Nakaseomyces glabratus [34]): 0.5 µg/mL (≈ 0.709 µM)
- MIC (Candida albicans [35]): 16 µg/mL
- MIC (Candida albicans [36]): < 0.015 µg/mL
- MIC (Nakaseomyces glabratus [37]): 0.06 µg/mL (≈ 0.085 µM)
- MIC (Nakaseomyces glabratus [38]): 8 µg/mL (≈ 11.3 µM)
- MIC (Nakaseomyces glabratus [39]): 8 µg/mL (≈ 11.3 µM)

SMILES: OC(Cn1cncn1)(Cn1cncn1)c1ccc(F)cc1F [FLUCONAZOLE]
- MIC50 (Nakaseomyces glabratus [1]): 64 µg/mL (≈ 209 µM)
- MIC90 (Nakaseomyces glabratus [1]): 64 µg/mL (≈ 209 µM)
- MIC50 (Candida albicans [2]): 0.25 µg/mL (≈ 0.816 µM)
- MIC90 (Candida albicans [2]): 4 µg/mL (≈ 13.1 µM)
- MIC50 (Nakaseomyces glabratus [3]): 32 µg/mL (≈ 104 µM)
- MIC90 (Nakaseomyces glabratus [3]): 64 µg/mL (≈ 209 µM)
- MIC (Pichia kudriavzevii [4]): 64 µg/mL (≈ 209 µM)
- MIC50 (Nakaseomyces glabratus [5]): 8 µg/mL (≈ 26.1 µM)
- MIC90 (Nakaseomyces glabratus [5]): 64 µg/mL (≈ 209 µM)
- MIC50 (Candida albicans [6]): 0.25 µg/mL (≈ 0.816 µM)
- MIC90 (Candida albicans [6]): 0.25 µg/mL (≈ 0.816 µM)
- MIC (Candida albicans [7]): < 0.125 µg/mL
- MIC (Nakaseomyces glabratus [8]): 64 µg/mL
- MIC (Nakaseomyces glabratus [9]): 32 µg/mL
- MIC (Candida tropicalis [10]): 0.25 µg/mL (≈ 0.816 µM)
- MIC (Candida albicans [11]): 1 µg/mL (≈ 3.27 µM)
- MIC (Nakaseomyces glabratus [12]): > 64 µg/mL
- MIC (Candida albicans [13]): 64 µg/mL
- MIC (Nakaseomyces glabratus [14]): 64 µg/mL (≈ 209 µM)
- MIC (Candida albicans [15]): 64 µg/mL
- MIC (Nakaseomyces glabratus [16]): 128 µg/mL (≈ 418 µM)
- MIC (Nakaseomyces glabratus [17]): 8 µg/mL (≈ 26.1 µM)
- MIC (Pichia kudriavzevii [18]): 64 µg/mL (≈ 209 µM)
- MIC (Nakaseomyces glabratus [19]): 16 µg/mL (≈ 52.2 µM)
- MIC (Nakaseomyces glabratus [20]): 8 µg/mL (≈ 26.1 µM)
- MIC (Pichia kudriavzevii [21]): 64 µg/mL
- MIC (Nakaseomyces glabratus [22]): 16 µg/mL (≈ 52.2 µM)
- MIC (Pichia kudriavzevii [23]): 32 µg/mL
- MIC (Nakaseomyces glabratus [24]): 16 µg/mL (≈ 52.2 µM)
- MIC (Nakaseomyces glabratus [25]): > 64 µg/mL
- MIC (Pichia kudriavzevii [26]): 32 µg/mL (≈ 104 µM)
- MIC (Candida albicans [27]): < 0.125 µg/mL
- MIC50 (Candida albicans [28]): 0.25 µg/mL (≈ 0.816 µM)
- MIC90 (Candida albicans [28]): 1 µg/mL (≈ 3.27 µM)
- MIC (Nakaseomyces glabratus [29]): 64 µg/mL (≈ 209 µM)
- MIC (Nakaseomyces glabratus [30]): > 64 µg/mL
- MIC (Nakaseomyces glabratus [31]): 8 µg/mL (≈ 26.1 µM)
- MIC (Pichia kudriavzevii [32]): 64 µg/mL (≈ 209 µM)
- MIC (Candida tropicalis [33]): 0.5 µg/mL (≈ 1.63 µM)
- MIC (Nakaseomyces glabratus [34]): 4 µg/mL (≈ 13.1 µM)
- MIC (Candida albicans [35]): 64 µg/mL
- MIC (Candida albicans [36]): < 0.125 µg/mL
- MIC (Nakaseomyces glabratus [37]): 2 µg/mL (≈ 6.53 µM)
- MIC (Nakaseomyces glabratus [38]): 16 µg/mL (≈ 52.2 µM)
- MIC (Nakaseomyces glabratus [39]): > 64 µg/mL
